Results: US20080153800A1, “NOVEL CRYSTALLINE COMPOUND” (AstraZeneca AB, priority 2006, published 2008)

Experiments:
[1] = Competitive slurries of Form A and Form B in a range of solvents; type: physicochemical
Description: Form B also has a much higher melting endotherm.

[2] = Conversion of the crystalline form in aqueous media; type: physicochemical
Description: International patent application PCT/GB2006/002471 (WO2007/007041) discloses the Agent in 2 different crystalline forms (Example 39k). […] This form will hereinafter be referred to as Form A′. The preparation of Form A is also described in the Example hereinafter.
This form of the Agent will hereinafter be referred to as Form B.

| Compound | relative stability of crystalline forms in competitive slurries [1] | conversion to other forms in aqueous media [2] |
| --- | --- | --- |
| CC(C)Oc1cc(Oc2cnc(C(=O)N3CCC3)cn2)cc(C(=O)Nc2cc[nH]n2)c1 [Form B, 3-{[5-(azetidin-1-ylcarbonyl)pyrazin-2-yl]oxy}-5-[(1-methylethyl)oxy]-N-1H-pyrazol-3-ylbenzamide] | most stable form | does not significantly convert to other forms |
| CC(C)Oc1cc(Oc2cnc(C(=O)N3CCC3)cn2)cc(C(=O)Nc2cc[nH]n2)c1 [Form A, 3-{[5-(Azetidin-1-ylcarbonyl)pyrazin-2-yl]oxy}-5-[(1-methylethyl)oxy]-N-1H-pyrazol-3-ylbenzamide] | – | convert to the amorphous form |
| CC(C)Oc1cc(Oc2cnc(C(=O)N3CCC3)cn2)cc(C(=O)Nc2cc[nH]n2)c1 [Form A′, 3-{[5-(azetidin-1-ylcarbonyl)pyrazin-2-yl]oxy}-5-[(1-methylethyl)oxy]-N-1H-pyrazol-3-ylbenzamide] | – | convert to the amorphous form |
